In patent US20250207131A1, “MODIFIED RNA AGENTS WITH REDUCED OFF-TARGET EFFECT” (Alnylam Pharmaceuticals, Inc., priority 2018, published 2025):

Assays:
GO1 (HAO1) = experiment: In vitro on-target activity, primary mouse hepatocytes, transfection, RT-qPCR (GO1/HAO1 siRNAs); type: cell-based; details: HAO1 (Seq 1)
Protocol: Cell culture and transfections: Primary Mouse Hepatocytes (Thermo Fisher Scientific/Gibco) were transfected by adding 4.9 μL of Opti-MEM plus 0.1 μL of Lipofectamine RNAiMax per well (Invitrogen, cat #13778-150) to 5 μL of siRNA duplexes per well into a 384-well plate and incubated at room temperature for 15 minutes. 40 μL of Dulbecco's Modified Eagle Medium (Hep3b) or William's Medium (PMH) containing ˜5 ×10^3 cells were then added to the siRNA mixture. Cells were incubated for 24 hours at 37° C. and then processed for RNA purification. Experiments were performed at 10 nM and 0.1 nM doses of siRNA.
Total RNA isolation using DYNABEADS mRNA Isolation Kit: RNA was isolated using an automated protocol on a BioTek-EL406 platform using DYNABEADs (Invitrogen, cat #61012). Briefly, 70 μL of Lysis/Binding Buffer and 10 μL of lysis buffer containing 3 μL of magnetic beads were added to each well. […]
Real time PCR: 2 μL of cDNA were added to a master mix containing 2 μL water, 0.5 μL of either an appropriate GAPDH TaqMan VIC Probe or the target probe and 5 μL Lightcycler 480 probe master mix (Roche, cat #04887301001) per well in a 384 well plate (Roche, cat #04887301001). […] To calculate relative fold change, real time data were analyzed using the ΔΔCt method and normalized to assays performed with cells transfected with a non-targeting control siRNA.

[1] = tested on: luciferase reporter plasmids (psiCHECK2, Renilla luciferase fused to target sequence); experiment: Off-target Dual-Glo luciferase reporter assay in COS-7 cells; type: cell-based; details: HAO1 (Seq 1); luciferase reporter plasmids co-transfected with siRNAs into COS-7 cells
Protocol: Dual-Glo® Luciferase assay: Cos7 cells (ATCC, Manassas, VA) were grown to near confluence at 37° C. in an atmosphere of 5% CO2 in DMEM (ATCC) supplemented with 10% FBS, before being released from the plate by trypsinization. siRNA and psiCHCECK2 plasmid transfection was carried out by adding 5 μL of siRNA duplexes and 5 μL of psiCHECK2 plasmid per well along with 5 μL of Opti-MEM plus 0.1 μL of Lipofectamine 2000 per well (Invitrogen, Carlsbad CA. cat #13778-150) and then incubated at room temperature for 15 minutes. The mixture was then added to the cells which were re-suspended in 35 ul of fresh complete media. The transfected cells were incubated at 37° C. in an atmosphere of 5% CO2.
48 hours after the siRNAs and psiCHECK2 plasmid were transfected; Firefly (transfection control) and Renilla (fused to target sequence) luciferase were measured. First, media was removed from cells. Then Firefly luciferase activity was measured by adding 20 μL of Dual-Glo® Luciferase Reagent equal to the culture medium volume to each well and mix. The mixture was incubated at room temperature for 30 minutes before luminescence (500 nm) was measured on a Spectramax (Molecular Devices) to detect the Firefly luciferase signal. Renilla luciferase activity was measured by adding 20 μL of room temperature of Dual-Glo® Stop & Glo® Reagent was added to each well and the plates were incubated for 10-15 minutes before luminescence was again measured to determine the Renilla luciferase signal. The Dual-Glo® Stop & Glo® Reagent, quenches the firefly luciferase signal and sustained luminescence for the Renilla luciferase reaction. siRNA activity was determined by normalizing the Renilla signal to the Firefly (control) signal within each well. The magnitude of siRNA activity was then assessed relative to cells that were transfected with the same vector but were not treated with siRNA or were treated with a non-targeting siRNA. All transfections were done at n=2 or greater.

[2] = Rat toxicity study, clinical pathology parameters; details: rats, single subcutaneous dose 30 mg/kg, cohort average
[3] = rat, in vivo, sc, 30 mg/kg

Q: Which results are given for “Parent (AD-65644): GO1 siRNA; passenger g•a•auguGaaAGucaucgacaa(L), guide u•U•gucGaUGacuuUcAcauuc•u•g (sense AUGUGAAAGUCAUCGACAA; antisense GUCGAUGACUUUCACAUUC; phosphorothioate ends, overhangs, chemistry not fully specified)”?
A: On-Target mRNA remaining (%) 0.1 nM siRNA (GO1 (HAO1); 0.1 nM siRNA): 96.1%; On-Target mRNA remaining (%) 10 nM siRNA (GO1 (HAO1); 10 nM siRNA): 27.7%; IC50 [1]: 0.53 nM; ALB Avg. [2]: 3.0 g/dL; ALP Avg. [2]: 449 U/L; ALT Avg. [2]: 47 U/L; AST Avg. [2]: 180 U/L; BILI Avg. [2]: 0.52 mg/dL; CA Avg. [2]: 10.3 mg/dL; CHOL Avg. [2]: 74 mg/dL; CREAT Avg. [2]: 0.23 mg/dL; GLDH Avg. [2]: 77.5 U/L; GLOB Avg. [2]: 2.63 g/dL; GLUC Avg. [2]: 113 mg/dL; K Avg. [2]: 4.3 mmol/L; NA Avg. [2]: 140 mmol/L; PHOS Avg. [2]: 8.8 mg/dL; PROT Avg. [2]: 6 g/dL; TRIG Avg. [2]: 138 mg/dL; UREAN Avg. [2]: 16.8 mg/dL; A/G Avg. [3]: 1.1
